Data reported in patent US12319672B2, “Alpha-D-galactopyranoside derivatives” (Idorsia Pharmaceuticals Ltd, priority 2019, dated 2025).

Experiments:
human Gal-1 (hGal-1) = test: Competitive binding assay: binding of biotinylated hGal-1 to microplate-adsorbed asialofetuin (ASF); settings: Activities on hGal-1; mean values of several measurements
How it was run: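 Biotin-hGal-3/hGal-1 300-1000 ng/mL + cpd (DMSO dilutions) on ASF-coated plate, 3 h 4° C; wash; SA-HRP 80 ng/mL 1 h 4° C; wash; ABTS. IC50 = mean of several runs. hGal-1 preferably Cys→Ser (all six) mutant.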

human Gal-3 (hGal-3) = human Gal-3 (hGal-3) (Homo sapiens (Human), UniProt P17931); test: Competitive binding assay: binding of biotinylated hGal-3 to microplate-adsorbed asialofetuin (ASF); settings: Activity on hGal-3; mean values of several measurements
human Gal-3 (hGal-3), sequence (P17931 whole entry): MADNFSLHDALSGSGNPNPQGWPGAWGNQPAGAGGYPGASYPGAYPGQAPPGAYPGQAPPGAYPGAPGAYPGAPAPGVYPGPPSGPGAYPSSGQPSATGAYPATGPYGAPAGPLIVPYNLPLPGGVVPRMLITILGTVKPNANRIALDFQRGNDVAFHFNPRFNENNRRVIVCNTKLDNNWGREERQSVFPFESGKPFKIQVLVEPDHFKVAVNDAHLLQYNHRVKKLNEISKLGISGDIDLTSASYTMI
How it was run: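 Compounds diluted in DMSO competed with biotinylated hGal-3 or hGal-1 (300-1000 ng/mL) for binding to plate-adsorbed asialofetuin for 3 h at 4° C. Bound galectin was detected with streptavidin-peroxidase (80 ng/mL, 1 h, 4° C) and ABTS substrate; IC50 reported as mean of several measurements.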

human Gal-1 (hGal-1), sequence (P09382 2-135 limits assumed): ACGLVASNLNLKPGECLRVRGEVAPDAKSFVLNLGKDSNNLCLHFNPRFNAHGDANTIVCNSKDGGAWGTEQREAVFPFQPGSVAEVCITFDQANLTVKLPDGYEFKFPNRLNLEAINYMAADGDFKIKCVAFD

| Structure (SMILES) | IC50 (human Gal-1 (hGal-1)) [nM] | IC50 (human Gal-3 (hGal-3)) [nM] |
| --- | --- | --- |
| CO[C@@H]1[C@@H](n2cc(-c3cc(F)c(F)c(F)c3)nn2)[C@@H](O)[C@@H](CO)O[C@@H]1Cc1cc(C2CCN(C)CC2)on1 [Example 3.39, (2R,3R,4S,5R,6R)-2-(hydroxymethyl)-5-methoxy-6-((5-(1-methylpiperidin-4-yl)isoxazol-3-yl)methyl)-4-(4-(3,4,5-trifluorophenyl)-1H-1,2,3-triazol-1-yl)tetrahydro-2H-pyran-3-ol] | 5090 | 260 |
| CO[C@@H]1[C@@H](n2cc(-c3cc(F)c(F)c(F)c3)nn2)[C@@H](O)[C@@H](CO)O[C@@H]1Cc1cc(C2CCN(CC(C)C)CC2)on1 [Example 3.41, (2R,3R,4S,5R,6R)-2-(hydroxymethyl)-6-((5-(1-isobutylpiperidin-4-yl)isoxazol-3-yl)methyl)-5-methoxy-4-(4-(3,4,5-trifluorophenyl)-1H-1,2,3-triazol-1-yl)tetrahydro-2H-pyran-3-ol] | 2960 | 230 |
| CO[C@@H]1[C@@H](n2cc(-c3cc(F)c(F)c(F)c3)nn2)[C@@H](O)[C@@H](CO)O[C@@H]1Cc1cc(C2CCN(CCC(C)(C)C)CC2)on1 [Example 3.42, (2R,3R,4S,5R,6R)-6-((5-(1-(3,3-dimethylbutyl)piperidin-4-yl)isoxazol-3-yl)methyl)-2-(hydroxymethyl)-5-methoxy-4-(4-(3,4,5-trifluorophenyl)-1H-1,2,3-triazol-1-yl)tetrahydro-2H-pyran-3-ol] | 5900 | 140 |
| CO[C@@H]1[C@@H](n2cc(-c3cc(F)c(F)c(F)c3)nn2)[C@@H](O)[C@@H](CO)O[C@@H]1Cc1cc(C2CCN(CC3CC3)CC2)on1 [Example 3.43, (2R,3R,4S,5R,6R)-6-((5-(1-(cyclopropylmethyl)piperidin-4-yl)isoxazol-3-yl)methyl)-2-(hydroxymethyl)-5-methoxy-4-(4-(3,4,5-trifluorophenyl)-1H-1,2,3-triazol-1-yl)tetrahydro-2H-pyran-3-ol] | 2830 | 130 |
| CO[C@@H]1[C@@H](n2cc(-c3cc(F)c(F)c(F)c3)nn2)[C@@H](O)[C@@H](CO)O[C@@H]1Cc1cc(C2CCN(CC3COC3)CC2)on1 [Example 3.44, (2R,3R,4S,5R,6R)-2-(hydroxymethyl)-5-methoxy-6-((5-(1-(oxetan-3-ylmethyl)piperidin-4-yl)isoxazol-3-yl)methyl)-4-(4-(3,4,5-trifluorophenyl)-1H-1,2,3-triazol-1-yl)tetrahydro-2H-pyran-3-ol] | 5320 | 560 |
| CO[C@@H]1[C@@H](n2cc(-c3cc(F)c(F)c(F)c3)nn2)[C@@H](O)[C@@H](CO)O[C@@H]1Cc1cc(C2CCN(S(C)(=O)=O)CC2)on1 [Example 3.45, (2R,3R,4S,5R,6R)-2-(hydroxymethyl)-5-methoxy-6-((5-(1-(methylsulfonyl)piperidin-4-yl)isoxazol-3-yl)methyl)-4-(4-(3,4,5-trifluorophenyl)-1H-1,2,3-triazol-1-yl)tetrahydro-2H-pyran-3-ol] | 490 | 37 |
| CCCS(=O)(=O)N1CCC(c2cc(C[C@H]3O[C@H](CO)[C@H](O)[C@H](n4cc(-c5cc(F)c(F)c(F)c5)nn4)[C@H]3OC)no2)CC1 [Example 3.46, (2R,3R,4S,5R,6R)-2-(hydroxymethyl)-5-methoxy-6-((5-(1-(propylsulfonyl)piperidin-4-yl)isoxazol-3-yl)methyl)-4-(4-(3,4,5-trifluorophenyl)-1H-1,2,3-triazol-1-yl)tetrahydro-2H-pyran-3-ol] | 580 | 44 |
| CO[C@@H]1[C@@H](n2cc(-c3cc(F)c(F)c(F)c3)nn2)[C@@H](O)[C@@H](CO)O[C@@H]1Cc1cc(C2CCN(S(=O)(=O)C(C)C)CC2)on1 [Example 3.47, (2R,3R,4S,5R,6R)-2-(hydroxymethyl)-6-((5-(1-(isopropylsulfonyl)piperidin-4-yl)isoxazol-3-yl)methyl)-5-methoxy-4-(4-(3,4,5-trifluorophenyl)-1H-1,2,3-triazol-1-yl)tetrahydro-2H-pyran-3-ol] | 760 | 50 |
| CO[C@@H]1[C@@H](n2cc(-c3cc(F)c(F)c(F)c3)nn2)[C@@H](O)[C@@H](CO)O[C@@H]1Cc1cc(C2CCN(C(=O)CC(C)C)CC2)on1 [Example 3.48, 1-(4-(3-(((2R,3R,4S,5R,6R)-5-hydroxy-6-(hydroxymethyl)-3-methoxy-4-(4-(3,4,5-trifluorophenyl)-1H-1,2,3-triazol-1-yl)tetrahydro-2H-pyran-2-yl)methyl)isoxazol-5-yl)piperidin-1-yl)-3-methylbutan-1-one] | 470 | 41 |
| CO[C@@H]1[C@@H](n2cc(-c3cc(F)c(F)c(F)c3)nn2)[C@@H](O)[C@@H](CO)O[C@@H]1Cc1cc(C2CCN(C(=O)C3CCCC3)CC2)on1 [Example 3.49, cyclopentyl(4-(3-(((2R,3R,4S,5R,6R)-5-hydroxy-6-(hydroxymethyl)-3-methoxy-4-(4-(3,4,5-trifluorophenyl)-1H-1,2,3-triazol-1-yl)tetrahydro-2H-pyran-2-yl)methyl)isoxazol-5-yl)piperidin-1-yl)methanone] | 530 | 57 |
| CO[C@@H]1[C@@H](n2cc(-c3cc(F)c(F)c(F)c3)nn2)[C@@H](O)[C@@H](CO)O[C@@H]1Cc1cc(C2CCN(C(=O)C3CCC3)CC2)on1 [Example 3.50, cyclobutyl(4-(3-(((2R,3R,4S,5R,6R)-5-hydroxy-6-(hydroxymethyl)-3-methoxy-4-(4-(3,4,5-trifluorophenyl)-1H-1,2,3-triazol-1-yl)tetrahydro-2H-pyran-2-yl)methyl)isoxazol-5-yl)piperidin-1-yl)methanone] | 590 | 45 |
| CO[C@@H]1[C@@H](n2cc(-c3cc(F)c(F)c(F)c3)nn2)[C@@H](O)[C@@H](CO)O[C@@H]1Cc1cc(C2CCN(C(=O)NC(C)(C)C)CC2)on1 [Example 3.52, N-(tert-butyl)-4-(3-(((2R,3R,4S,5R,6R)-5-hydroxy-6-(hydroxymethyl)-3-methoxy-4-(4-(3,4,5-trifluorophenyl)-1H-1,2,3-triazol-1-yl)tetrahydro-2H-pyran-2-yl)methyl)isoxazol-5-yl)piperidine-1-carboxamide] | 230 | 31 |
| CO[C@@H]1[C@@H](n2cc(-c3cc(F)c(F)c(F)c3)nn2)[C@@H](O)[C@@H](CO)O[C@@H]1Cc1cc(C2CCN(C(=O)[C@@H](N)C(C)C)CC2)on1 [Example 3.54, (S)-2-amino-1-(4-(3-(((2R,3R,4S,5R,6R)-5-hydroxy-6-(hydroxymethyl)-3-methoxy-4-(4-(3,4,5-trifluorophenyl)-1H-1,2,3-triazol-1-yl)tetrahydro-2H-pyran-2-yl)methyl)isoxazol-5-yl)piperidin-1-yl)-3-methylbutan-1-one] | 1510 | 440 |
| CO[C@@H]1[C@@H](n2cc(-c3cc(F)c(F)c(F)c3)nn2)[C@@H](O)[C@@H](CO)O[C@@H]1Cc1cc(C2CCN(S(=O)(=O)N(C)C)CC2)on1 [Example 3.58, 4-(3-(((2R,3R,4S,5R,6R)-5-hydroxy-6-(hydroxymethyl)-3-methoxy-4-(4-(3,4,5-trifluorophenyl)-1H-1,2,3-triazol-1-yl)tetrahydro-2H-pyran-2-yl)methyl)isoxazol-5-yl)-N,N-dimethylpiperidine-1-sulfonamide] | 1870 | 61 |
| CO[C@@H]1[C@@H](n2cc(-c3cc(F)c(F)c(F)c3)nn2)[C@@H](O)[C@@H](CO)O[C@@H]1Cc1cc(C2CCN(C(=O)NC3CC3)CC2)on1 [Example 3.59, N-cyclopropyl-4-(3-(((2R,3R,4S,5R,6R)-5-hydroxy-6-(hydroxymethyl)-3-methoxy-4-(4-(3,4,5-trifluorophenyl)-1H-1,2,3-triazol-1-yl)tetrahydro-2H-pyran-2-yl)methyl)isoxazol-5-yl)piperidine-1-carboxamide] | 980 | 42 |
| CO[C@@H]1[C@@H](n2cc(-c3cc(F)c(F)c(F)c3)nn2)[C@@H](O)[C@@H](CO)O[C@@H]1C[C@H]1CC(C2CCN(S(=O)(=O)C(C)C)CC2)=NO1 [Example 3.60, (2R,3R,4S,5R,6R)-2-(hydroxymethyl)-6-(((R)-3-(1-(isopropylsulfonyl)piperidin-4-yl)-4,5-dihydroisoxazol-5-yl)methyl)-5-methoxy-4-(4-(3,4,5-trifluorophenyl)-1H-1,2,3-triazol-1-yl)tetrahydro-2H-pyran-3-ol] | 5100 | 370 |
| CO[C@@H]1[C@@H](n2cc(-c3cc(F)c(F)c(F)c3)nn2)[C@@H](O)[C@@H](CO)O[C@@H]1C[C@@H]1CC(C2CCN(S(=O)(=O)C(C)C)CC2)=NO1 [Example 3.61, (2R,3R,4S,5R,6R)-2-(hydroxymethyl)-6-(((S)-3-(1-(isopropylsulfonyl)piperidin-4-yl)-4,5-dihydroisoxazol-5-yl)methyl)-5-methoxy-4-(4-(3,4,5-trifluorophenyl)-1H-1,2,3-triazol-1-yl)tetrahydro-2H-pyran-3-ol] | 1120 | 72 |
| CO[C@@H]1[C@@H](n2cc(-c3cc(F)c(F)c(F)c3)nn2)[C@@H](O)[C@@H](CO)O[C@@H]1Cc1cc(C2CCN(S(=O)(=O)N3CCOCC3)CC2)on1 [Example 3.62, (2R,3R,4S,5R,6R)-2-(hydroxymethyl)-5-methoxy-6-((5-(1-(morpholinosulfonyl)piperidin-4-yl)isoxazol-3-yl)methyl)-4-(4-(3,4,5-trifluorophenyl)-1H-1,2,3-triazol-1-yl)tetrahydro-2H-pyran-3-ol] | 1350 | 45 |
